Results reported in patent US20060246005A1, “Poly(peptide) as a chelator: methods of manufacture and uses” (THE BOARD OF REGENTS OF THE UNIVERSITY OF TEXAS SYSTEM, priority 2005, published 2006).

Test system: mammary tumor derived from RBA CRL-1747 cell line
Experiment: Scintigraphic (planar) imaging in breast tumor-bearing rats
Format: in vivo, rat
Conditions: 0.5-4 hrs post-injection
Text: The camera field of view is 20 cm×20 cm with an edge of 1.3 cm. The intrinsic spatial resolution is 3 mm and the matrix is 64×64.
To ascertain whether the tumor uptake by with ^99mTc-GAP-EDL was related to estrogen receptors, we performed a blocking study. […] Computer outlined regions of interest (ROI) (counts per pixel) were used to determine tumor-to-background count density ratios.
Scintigraphic images were obtained at 0.5-4.0 hrs after i.v. injection of ^99mTc-GAP-COX2i (300 μCi/rat, iv) and imaged at 0.5-4.0 hrs in mammary tumor-bearing rats (derived from RBA CRL-1747 cell line). Whole-body autoradiograms were obtained by a quantitative image analyzer (Cyclone Storage Phosphor System, Packard, Meridian, Conn.). Following intravenous injection of ^99mTc-GAP-COX2i (100 μCi/rat, iv), athymic nude mice bearing human uterine sarcoma in the right leg were killed at 1 hour and the body was fixed in carboxymethyl cellulose (3%). […] Each section was thawed and mounted on a slide. […]
Scintigraphic images were obtained at 0.5-4.0 hrs after i.v. injection of ^99“Tc-GAP-LAS or GAP-HCD (300 μCi/rat, iv) and imaged at 0.5-4.0 hrs in mammary tumor-bearing rats (derived from RBA CRL-1747 cell line). Whole-body autoradiogramrs were obtained by a quantitative image analyzer (Cyclone Storage Phosphor System, Packard, Meridian, Conn.). […]

O=C([O-])CN(CCN(CC(=O)[O-])CC(=O)[O-])CCN(CC(=O)[O-])CC(=O)[O-].[99Tc+4] [^99mTc-DTPA]
tumor visualization on scintigraphic images: tumor could be visualized
